Source: publication PMC6199744, “Development of Chemical Proteomics for the Folateome and Analysis of the Kinetoplastid Folateome” (ACS Infectious Diseases, 2018)
Like-named read-outs stand apart in the source and are kept apart here.

Columns and labels:
Format in all cases: binding
[1] = target: T1, HeLa cell extract proteins (Homo sapiens, UniProt Q15437)
T1 construct: endogenous in cells; host or cells: HeLa cell extract

[2] = target: T2, HeLa cell extract proteins (Homo sapiens, UniProt P08579)
T2 construct: endogenous in cells; host or cells: HeLa cell extract
T2 sequence (P08579 whole entry): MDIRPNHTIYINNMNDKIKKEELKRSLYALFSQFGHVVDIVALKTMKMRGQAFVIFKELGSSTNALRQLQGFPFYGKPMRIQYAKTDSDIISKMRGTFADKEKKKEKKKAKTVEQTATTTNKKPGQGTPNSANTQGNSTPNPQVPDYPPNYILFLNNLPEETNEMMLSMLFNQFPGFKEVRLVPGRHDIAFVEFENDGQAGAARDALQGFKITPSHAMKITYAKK

[3] = target: T3, HeLa cell extract proteins (Homo sapiens, UniProt P04179)
T3 construct: endogenous in cells; host or cells: HeLa cell extract
T3 sequence (P04179 25-222): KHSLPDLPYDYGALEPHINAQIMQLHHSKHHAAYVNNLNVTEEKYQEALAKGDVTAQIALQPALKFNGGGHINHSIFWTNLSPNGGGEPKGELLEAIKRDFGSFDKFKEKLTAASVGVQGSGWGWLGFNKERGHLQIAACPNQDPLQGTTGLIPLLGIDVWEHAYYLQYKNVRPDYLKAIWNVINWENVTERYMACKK

[4] = target: T4, HeLa cell extract proteins (Homo sapiens, UniProt Q15029)
T4 construct: endogenous in cells; host or cells: HeLa cell extract
T4 sequence (Q15029 1-972): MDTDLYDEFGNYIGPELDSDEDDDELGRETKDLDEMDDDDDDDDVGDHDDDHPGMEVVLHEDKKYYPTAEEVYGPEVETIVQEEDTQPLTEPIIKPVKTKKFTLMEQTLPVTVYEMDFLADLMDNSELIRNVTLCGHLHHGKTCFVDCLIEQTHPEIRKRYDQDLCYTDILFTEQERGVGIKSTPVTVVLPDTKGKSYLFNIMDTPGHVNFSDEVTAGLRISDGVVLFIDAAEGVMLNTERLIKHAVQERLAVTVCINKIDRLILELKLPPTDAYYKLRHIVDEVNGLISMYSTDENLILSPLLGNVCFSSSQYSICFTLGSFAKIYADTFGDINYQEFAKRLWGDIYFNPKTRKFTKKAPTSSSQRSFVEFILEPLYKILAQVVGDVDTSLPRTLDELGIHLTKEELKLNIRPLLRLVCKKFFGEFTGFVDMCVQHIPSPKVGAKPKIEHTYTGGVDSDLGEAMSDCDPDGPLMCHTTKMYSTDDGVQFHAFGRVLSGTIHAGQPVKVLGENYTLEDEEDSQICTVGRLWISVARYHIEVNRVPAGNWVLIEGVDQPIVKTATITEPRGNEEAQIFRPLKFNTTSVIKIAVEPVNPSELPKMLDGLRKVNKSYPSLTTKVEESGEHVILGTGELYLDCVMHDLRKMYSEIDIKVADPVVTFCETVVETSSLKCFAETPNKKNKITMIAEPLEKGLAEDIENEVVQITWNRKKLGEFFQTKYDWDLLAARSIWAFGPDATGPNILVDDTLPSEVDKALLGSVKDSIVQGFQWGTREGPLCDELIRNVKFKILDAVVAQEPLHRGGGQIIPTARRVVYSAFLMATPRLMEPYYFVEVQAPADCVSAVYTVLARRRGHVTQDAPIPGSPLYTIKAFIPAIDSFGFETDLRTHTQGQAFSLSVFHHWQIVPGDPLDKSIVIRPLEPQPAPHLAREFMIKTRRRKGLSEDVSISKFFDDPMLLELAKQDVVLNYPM

[5] = target: T5, HeLa cell extract proteins (Homo sapiens, UniProt Q96PK6)
T5 construct: endogenous in cells; host or cells: HeLa cell extract
T5 sequence (Q96PK6 1-669): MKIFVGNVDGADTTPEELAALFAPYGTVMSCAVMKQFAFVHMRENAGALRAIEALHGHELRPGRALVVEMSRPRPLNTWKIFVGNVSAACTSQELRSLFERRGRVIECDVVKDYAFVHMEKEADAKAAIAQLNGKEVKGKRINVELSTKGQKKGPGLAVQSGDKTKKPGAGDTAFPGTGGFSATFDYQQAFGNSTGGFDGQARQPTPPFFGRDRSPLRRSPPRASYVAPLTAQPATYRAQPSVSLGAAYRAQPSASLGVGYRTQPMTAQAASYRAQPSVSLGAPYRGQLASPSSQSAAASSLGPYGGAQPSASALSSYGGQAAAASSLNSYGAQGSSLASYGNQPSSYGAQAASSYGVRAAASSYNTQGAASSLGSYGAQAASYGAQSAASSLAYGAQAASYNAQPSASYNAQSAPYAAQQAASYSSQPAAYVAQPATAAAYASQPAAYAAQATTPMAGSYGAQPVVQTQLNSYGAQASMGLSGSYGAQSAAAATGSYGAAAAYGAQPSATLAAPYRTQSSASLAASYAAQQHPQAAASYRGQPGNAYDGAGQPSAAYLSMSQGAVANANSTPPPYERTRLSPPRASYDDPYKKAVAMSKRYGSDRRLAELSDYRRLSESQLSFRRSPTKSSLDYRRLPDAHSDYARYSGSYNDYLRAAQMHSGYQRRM

[6] = target: T6, HeLa cell extract proteins (Homo sapiens, UniProt Q8IUH3)
T6 construct: endogenous in cells; host or cells: HeLa cell extract
T6 sequence (Q8IUH3 1-476): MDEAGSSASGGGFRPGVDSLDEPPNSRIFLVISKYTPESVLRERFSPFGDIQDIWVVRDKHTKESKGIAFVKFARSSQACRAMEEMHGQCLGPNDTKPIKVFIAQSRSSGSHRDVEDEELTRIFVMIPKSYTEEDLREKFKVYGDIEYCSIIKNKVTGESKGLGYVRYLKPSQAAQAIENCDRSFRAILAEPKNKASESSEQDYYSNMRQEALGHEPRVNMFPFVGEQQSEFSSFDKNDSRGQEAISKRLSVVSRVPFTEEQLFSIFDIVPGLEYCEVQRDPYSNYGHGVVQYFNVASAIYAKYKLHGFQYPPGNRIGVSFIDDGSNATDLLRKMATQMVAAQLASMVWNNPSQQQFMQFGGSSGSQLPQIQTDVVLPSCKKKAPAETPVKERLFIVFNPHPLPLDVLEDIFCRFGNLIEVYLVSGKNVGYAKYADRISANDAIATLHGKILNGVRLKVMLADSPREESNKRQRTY

[7] = HeLa, protein RBM45 (ISOFORM 1 OF DEVELOPMENTALLY-REGULATED RNA-BINDING PROTEIN 1)

T1 sequence (Q15437 whole entry): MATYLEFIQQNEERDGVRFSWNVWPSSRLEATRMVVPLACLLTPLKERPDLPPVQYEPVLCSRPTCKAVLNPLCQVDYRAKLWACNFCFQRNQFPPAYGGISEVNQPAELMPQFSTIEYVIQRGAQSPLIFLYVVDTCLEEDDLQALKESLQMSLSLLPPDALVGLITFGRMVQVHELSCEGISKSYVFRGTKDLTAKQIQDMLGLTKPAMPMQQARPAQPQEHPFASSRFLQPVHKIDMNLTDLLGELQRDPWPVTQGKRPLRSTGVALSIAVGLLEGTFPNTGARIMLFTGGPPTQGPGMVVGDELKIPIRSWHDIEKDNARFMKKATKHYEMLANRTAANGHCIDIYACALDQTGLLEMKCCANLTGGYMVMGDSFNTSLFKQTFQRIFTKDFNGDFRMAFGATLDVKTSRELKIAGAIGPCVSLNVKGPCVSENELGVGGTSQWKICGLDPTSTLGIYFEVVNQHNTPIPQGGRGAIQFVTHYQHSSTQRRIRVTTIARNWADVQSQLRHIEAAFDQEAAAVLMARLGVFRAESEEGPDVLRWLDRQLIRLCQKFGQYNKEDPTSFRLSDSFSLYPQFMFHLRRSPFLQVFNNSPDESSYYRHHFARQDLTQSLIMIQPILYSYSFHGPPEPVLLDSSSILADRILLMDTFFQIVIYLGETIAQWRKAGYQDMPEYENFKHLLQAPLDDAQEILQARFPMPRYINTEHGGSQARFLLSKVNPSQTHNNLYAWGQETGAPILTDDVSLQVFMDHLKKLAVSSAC

Row | SMILES | fold changes relative to vehicle control ([1]; HeLa, protein SEC23B) | fold changes relative to vehicle control ([2]; HeLa, protein SNRPB2) | fold changes relative to vehicle control ([3]; protein SOD2, HeLa) | fold changes relative to vehicle control ([4]; protein EFTUD2, HeLa) | fold changes relative to vehicle control ([5]; captured protein RBM14, HeLa) | fold changes relative to vehicle control ([6]; HeLa, protein RBM45) | fold changes relative to vehicle control ([3]; HeLa, protein SOD2) | fold changes relative to vehicle control ([4]; HeLa, protein EFTUD2) | fold changes relative to vehicle control ([5]; HeLa, captured protein RBM14) | fold changes relative to vehicle control [6, 7] | fold changes relative to vehicle control [1] | fold changes relative to vehicle control [2] | fold changes relative to vehicle control [3] | fold changes relative to vehicle control [4] | fold changes relative to vehicle control [5] | fold changes relative to vehicle control [6]
1 | Nc1nc2cccc(-c3ccccc3)c2n1Cc1ccc(Cl)c(Cl)c1 [compound 3] | 1.04 | 0.76 | 1.43 | 0.99 | 0.87 | 0.96 | – | – | – | – | – | – | – | – | – | –
2 | NCCOCCOCC(=O)Nc1nc2ncc(CNc3ccc(C(=O)NC(CCC(=O)O)C(=O)O)cc3)nc2c(=O)[nH]1 (stereo not drawn) [compound 6] | 0.88 | 0.93 | – | – | – | – | 1.65 | 1.04 | 1.06 | 1 | – | – | – | – | – | –
3 | Nc1nc2[nH]cc(CCc3ccc(C(=O)N[C@@H](CCC(=O)O)C(=O)O)cc3)c2c(=O)[nH]1 [PTX, pemetrexed] | – | – | – | – | – | – | – | – | – | – | 0.91 | 0.98 | 1.29 | 0.9 | 0.99 | 1.04
4 | Nc1nc2c(c(=O)[nH]1)N(C=O)C(CNc1ccc(C(=O)N[C@@H](CCC(=O)O)C(=O)O)cc1)CN2 (stereo partly drawn) [LEU, leucovorin] | 0.98 | 1 | – | – | – | – | 1.14 | 0.97 | 0.92 | 1.12 | – | – | – | – | – | –
5 | CCCCCCOc1ccc(Cc2cnc(N)nc2N)cc1 [compound 1] | 1.01 | 1.22 | 1.91 | 1.11 | 0.72 | 1.06 | – | – | – | – | – | – | – | – | – | –
6 | NCCCNc1ccc(C(=O)NC(CCC(=O)O)C(=O)O)cc1 (stereo not drawn) [compound 7] | 1.09 | 0.77 | – | – | – | – | 1.35 | 0.91 | 1.1 | 0.96 | – | – | – | – | – | –
7 | CCCCCCOc1cccc(Cc2cnc(N)nc2N)c1 [compound 2] | 0.93 | 1.43 | 2.29 | 1.4 | 1 | 0.99 | – | – | – | – | – | – | – | – | – | –
